Experimental data from patent US9751861B2, “N1-(3,3,3-trifluoro-2-hydroxo-2-methylpropionyl)-piperidine derivatives as inhibitors of pyruvate dehydrogenase kinase” (MERCK PATENT GMBH, priority 2013, dated 2017).

Key:
PDHK2 = target: T1, PDHK2 (Homo sapiens, UniProt Q15119); assay: Biochemical activity testing of PDHK2: PDC inactivation assay; settings: human rec PDHK2, PDC from porcine heart, ATP 5 μM; read-out: IC50 PDHK2 (enzyme assay)
T1 construct: purchased Carna Bioscience
Text: Biochemical Activity Testing of PDHK2: PDC Inactivation Assay
The biochemical activity assay for PDHK2 is based on the inactivation of PDC through phosphorylation by PDHK2. The assay is run in two steps: the enzymatic PDHK2 reaction in which isolated PDC is phosphorylated by PDHK2 with ATP as co-substrate and the PDC activity assay in which pyruvate and NAD are converted to acetyl-CoA and NADH. The PDC activity correlates to the increase in NADH and thereby is detectable directly via the increasing fluorescence signal (Exc 340 nm, Em 450 nm). Inhibition of PDHK2 results in a lower phosphorylation status and thereby a less decrease in activity of PDC and a stronger increase in NADH fluorescence signal.
The PDC inactivation assay is performed in Greiner 384-well microtiter plates and is used for high throughput screen. 4 μl of PDHK2 (human, rec, Carna Bioscience, 10 ng/μl-137 nM final concentration) and PDC (isolated from porcine heart, Sigma-Aldrich, 20 mU/ml final concentration) are incubated in the absence or presence of the test compound (10 dilution concentrations) for 30 min at room temperature in kinase buffer (15 mM potassium phosphate buffer, pH 7.0, 60 mM KCl, 1.5 mM DTT, 2.5 mM MgCl2, 0.0125% (w/v) BSA, 0.125% Pluronic F-68). The kinase reaction is started by the addition of 4 μl ATP substrate solution (fc 5 μM in kinase buffer). After 30 min incubation at 37° C. 40 μl of PDC reaction solution (100 mM Tris/HCl, pH 7.8, 0.5 mM EDTA, 1 mM MgCl2, 50 mM NaF, 0.25 mM Coenzyme A, 5 mM pyruvate, 1 mM NAD, 5 mM DTT, […] thiamine pyrophosphate) is added. The first fluorescence measurement is performed on a Perkin Elmer Envision (Exc 340 nm, Em 450 nm). The reaction is incubated for 45 min at room temperature. Afterwards a second fluorescence measurement is performed and the PDC activity is calculated by the difference between both measurements. As full value for the PDHK2 assay the inhibitor-free PDHK2 reaction is used. The pharmacological zero value used is DCA (Sigma-Aldrich) in a final concentration of 3 mM. The inhibitory values (IC50) were determined using either the program Symyx Assay Explorer® or Condosseo® from GeneData.

human PDHK2 (12-407) = target: T2, human PDHK2 (12-407) (Homo sapiens, UniProt Q15119); assay: Isothermal titration calorimetry (ITC) binding; settings: 30° C., pH 7.5
T2 construct: The human PDHK2 (12-407) was produced in E. coli; His-tag (cleaved yes); made in house; host or cells: E. coli
Procedure: Isothermal Titration Calorimetry
ITC measurements were performed with a VP-ITC micro calorimeter (Microcal, LLC/GE Healthcare Bio-Sciences AB, Uppsala, Sweden). In general titrations were performed by titrating the protein (50 μM) to the test compound (5 μM) in 12 μl injections. All binding experiments were carried out at 30° C. In general the test compounds were diluted form DMSO stock solutions into the measurement buffer with a maximum final concentration of 1% DMSO. The measurement buffer was 20 mM HEPES, 135 mM KCl, 1 mM TCEP, 2 mM MgCl2, 15 mM NaH2PO4, pH 7.5. The human PDHK2 (12-407) was produced in E. coli as his-tagged protein and purified by affinity chromatography. The tag was removed by side specific proteolysis. Before titration the protein buffer was changed to the measurement buffer containing the same DMSO concentration as the test compound dilution. ITC data analysis was performed using Origin 7 calorimetry software from the same supplier. For most measurements a binding model of one binding site was assumed. According to the applied mathematical model it is possible to calculate the binding constant (KA), the observed binding enthalpy (ΔH^obs) as well as the stoichiometry (N) of the formed complex. Preceding analysis the raw data was corrected for the heats of dilution by extrapolating from the saturation value from the end of titration. In order to allow for direct comparison between the respective experimental series and protein preparations the protein concentration was corrected by referencing titrations to a well behaved standard inhibitor. The apparent stoichiometry values defined the fraction of binding competent protein and compensated for relative errors in protein concentration measurements. This corrected protein concentration was used to set up ITC experiment series with test compounds. Any deviations from ideal 1:1 stoichiometry observed here were attributed to errors in compound concentration. This nominal compound concentration was corrected as well to achieve 1:1 stoichiometry in the fit.

PDH-Elalpha (pSer300) = assay: Cellular immunofluorescence assay in HEK293T cells; assay type: cell-based; settings: Homo sapiens, HEK-293T, 5 hours incubation, anti-PDH-E1alpha pSer300 immunofluorescence, read-out: IC50 (cell data)
Procedure: Cellular Assay for Determination of Compound Activities
Compound activities were determined in a cellular immunofluorescence assay. Human HEK293T cells were seeded into black 384-well plates with clear bottom and grown overnight.
Next day, test compounds were added to the wells and the plates incubated for 5 hours. Following this, cells were fixed with formaldehyde, permeabilised and blocked. The primary antibody, Anti-PDH-Elalpha (pSer300), AP1064 (Merck Millipore) was added and incubated overnight in the plate wells. Next, cells were washed and the seconday antibody, Alexa Fluor 488, goat anti-rabbit ab (A-11008, Invitrogen) was added together with Hoechst 33258 (H3569, Invitrogen) and incubated for 1 hour in the plate wells. Finally, cells were washed and the plates were measured on the laser scanning cytometer acumen hci (TTpLabtech).
The raw data were normalized against a pharmacological inhibitor control and dose response curves were generated by plotting the percent effect values using the software package Genedata screener (Genedata).

SMILES | IC50 (PDHK2) [nM] | Kd (human PDHK2 (12-407)) [nM] | IC50 (PDH-Elalpha (pSer300)) [nM]
C[C@@](O)(C(=O)N1CCC(c2conc2-c2ccc(F)cc2)CC1)C(F)(F)F [Compound A129, (R)-3,3,3-Trifluoro-1-{^4-[3-(4-fluoro-phenyl)-isoxazol-4-yl]-piperidin-1-yl}-2-hydroxy-2-methyl-propan-1-one] | 300 to 3000 | < 300 | 3000 to 50000
C[C@@](O)(C(=O)N1CCC(c2ccnn2-c2cccc(C#N)c2)CC1)C(F)(F)F [Compound A8, 3-{5-[1-((R)-3,3,3-Trifluoro-2-hydroxy-2-methyl-propionyl)-piperidin-4-yl]-pyrazol-1-yl}-benzonitrile] | 300 to 3000 | < 300 | 300 to 3000
C[C@@](O)(C(=O)N1CCC(c2ccnn2-c2ccc(C#N)cc2)CC1)C(F)(F)F [Compound A9, 4-{5-[1-((R)-3,3,3-Trifluoro-2-hydroxy-2-methyl-propionyl)-piperidin-4-yl]-pyrazol-1-yl}-benzonitrile] | 300 to 3000 | < 300 | 300 to 3000
COCCn1nccc1C1CCN(C(=O)[C@@](C)(O)C(F)(F)F)CC1 [Compound A78, (R)-3,3,3-Trifluoro-2-hydroxy-1-[4-[2-(2-methoxyethyl)-2H-pyrazol-3-yl]-1-piperidyl]-2-methyl-propan-1-one] | 300 to 3000 | < 300 | 3000 to 50000
C[C@@](O)(C(=O)N1CCC(c2ccnn2-c2ccccc2)CC1)C(F)(F)F [Compound A25, (R)-3,3,3-Trifluoro-2-hydroxy-2-methyl-1-[4-(2-phenyl-2H-pyrazol-3-yl)piperidin-1-yl]-propan-1-one] | 300 to 3000 | < 300 | 300 to 3000
COc1ccc(-n2nccc2C2CCN(C(=O)[C@@](C)(O)C(F)(F)F)CC2)cn1 [Compound A53, (R)-3,3,3-Trifluoro-2-hydroxy-1-{4-[2-(6-methoxy-pyridin-3-yl)-2H-pyrazol-3-yl]-piperidin-1-yl}-2-methyl-propan-1-one] | 300 to 3000 | < 300 | 300 to 3000
C[C@@](O)(C(=O)N1CCC(c2ccnn2-c2ccccc2F)CC1)C(F)(F)F [Compound A4, (R)-3,3,3-Trifluoro-1-{4-[2-(2-fluoro-phenyl)-2H-pyrazol-3-yl]-piperidin-1-yl}-2-hydroxy-2-methyl-propan-1-one] | < 300 | < 300 | 300 to 3000
C[C@@](O)(C(=O)N1CCC(c2ccnn2-c2ccc(C(F)(F)F)cc2)CC1)C(F)(F)F [Compound A27, (R)-3,3,3-Trifluoro-2-hydroxy-2-methyl-1-{4-[2-(4-trifluoromethyl-phenyl)-2H-pyrazol-3-yl]-piperidin-1-yl}-propan-1-one] | < 300 | < 300 | 300 to 3000
C[C@@](O)(C(=O)N1CCC(n2cnnc2-c2ccccc2F)CC1)C(F)(F)F [Compound A55, (R)-3,3,3-Trifluoro-1-{4-[3-(2-fluoro-phenyl)-[1,2,4]triazol-4-yl]-piperidin-1-yl}-2-hydroxy-2-methyl-propan-1-one] | 300 to 3000 | 300 to 3000 | 3000 to 50000
COc1ccc(-n2nncc2C2CCN(C(=O)[C@@](C)(O)C(F)(F)F)CC2)cc1 [Compound A57, (R)-3,3,3-Trifluoro-2-hydroxy-1-{4-[3-(4-methoxy-phenyl)-3H-[1,2,3]triazol-4-yl]-piperidin-1-yl}-2-methyl-propan-1-one] | 300 to 3000 | 300 to 3000 | 3000 to 50000

The remaining lines, values ahead:

IC50 (PDHK2) [nM] | Kd (human PDHK2 (12-407)) [nM] | IC50 (PDH-Elalpha (pSer300)) [nM] | SMILES
< 300 | < 300 | < 300 | CC1CN(C(=O)[C@@](C)(O)C(F)(F)F)CCC1c1ccnn1-c1ccc(F)cc1F (mixture of isomers) [Compound A31, (R)-1-{4-[2-(2,4-difluoro-phenyl)-2H-pyrazol-3-yl]-3-methyl-piperidin-1-yl}-3,3,3-trifluoro-2-hydroxy-2-methyl-propan-1-one]
< 300 | < 300 | 300 to 3000 | C[C@@](O)(C(=O)N1CCC(n2ccnc2-c2ccc(Cl)cc2)CC1)C(F)(F)F [Compound A62, (R)-1-{4-[2-(4-Chloro-phenyl)-imidazol-1-yl]-piperidin-1-yl}-3,3,3-trifluoro-2-hydroxy-2-methyl-propan-1-one]
< 300 | < 300 | < 300 | C[C@@H]1CN(C(=O)[C@@](C)(O)C(F)(F)F)CC[C@@H]1c1ccnn1-c1ccc(F)cc1 [Compound A107, (R)-3,3,3-Trifluoro-1-{(3S,4S)-4-[2-(4-fluoro-phenyl)-2H-pyrazol-3-yl]-3-methyl-piperidin-1-yl}-2-hydroxy-2-methyl-propan-1-one]
< 300 | < 300 | 300 to 3000 | C[C@@H]1CN(C(=O)[C@@](C)(O)C(F)(F)F)CC[C@@H]1c1ccnn1[C@H]1CC[C@H](O)CC1 [Compound A121, (R)-3,3,3-Trifluoro-2-hydroxy-1-{(3S,4S)-4-[2-(4-hydroxy-cyclohexyl)-2H-pyrazol-3-yl]-3-methyl-piperidin-1-yl}-2-methyl-propan-1-one]
< 300 | < 300 | 300 to 3000 | C[C@@](O)(C(=O)N1CCC(c2ccnn2-c2ccc(F)cc2Cl)CC1)C(F)(F)F [Compound A39, (R)-1-{4-[2-(2-Chloro-4-fluoro-phenyl)-2H-pyrazol-3-yl]-piperidin-1-yl}-3,3,3-trifluoro-2-hydroxy-2-methyl-propan-1-one]
< 300 | < 300 | 300 to 3000 | C[C@@](O)(C(=O)N1CCC(c2ccnn2-c2ccc(Cl)cc2)CC1)C(F)(F)F [Compound A13, (R)-1-{4-[2-(4-Chloro-phenyl)-2H-pyrazol-3-yl]-piperidin-1-yl}-3,3,3-trifluoro-2-hydroxy-2-methyl-propan-1-one]
< 300 | < 300 | 300 to 3000 | COc1ccc(-n2nccc2C2CCN(C(=O)C(C)(O)C(F)(F)F)CC2)c(F)c1 (racemic) [Compound A30, rac-3,3,3-Trifluoro-1-{4-[2-(2-fluoro-4-methoxy-phenyl)-2H-pyrazol-3-yl]-piperidin-1-yl}-2-hydroxy-2-methyl-propan-1-one]
< 300 | < 300 | 300 to 3000 | CC(C)(O)c1ccc(-n2nccc2C2CCN(C(=O)[C@@](C)(O)C(F)(F)F)CC2)cc1 [Compound A20, (R)-3,3,3-Trifluoro-2-hydroxy-1-(4-{2-[4-(1-hydroxy-1-methyl-ethyl)-phenyl]-2H-pyrazol-3-yl}-piperidin-1-yl)-2-methyl-propan-1-one]
